Results as given in ChEMBL document CHEMBL3872231, “Design, synthesis, and biological evaluation of fluorinated imidazo[1,2-a]pyridine derivatives with potential antipsychotic activity” (Eur J Med Chem, 2016).
Active and inactive are the calls of the source. The calls are words filed in the database; no cut-off is given here.

Legend:
[1] = Displacement of [3H]-flunitrazepam from rat brain GABA-A receptor benzodiazepine site after 20 mins by liquid scintillation counting
Rattus norvegicus [2] = species on record: Rattus norvegicus; assay: Potency index, ratio of zolpidem Ki to compound Ki for rat brain GABA-A receptor benzodiazepine site
[3] = molecular target: T1, GABA-A receptor; alpha-1/beta-2/gamma-2 (Homo sapiens) (UniProt P14867+P47870+P18507); assay: Positive allosteric modulation of human recombinant GABA-A receptor alpha1beta2gamma2 expressed in HEK293 cells assessed as potentiation of GABA induced chloride currents at 1 uM treated every 60 secs measured for 7 secs by electrophysiological method; assay type: cell-based
[4] = molecular target: T2, GABA-A receptor; alpha-1/beta-2/gamma-2 (Homo sapiens, UniProt P14867+P18507+P47870); assay: Positive allosteric modulation of human recombinant GABA-A receptor alpha1beta2gamma2 expressed in HEK293 cells assessed as potentiation of GABA induced chloride currents treated every 60 secs measured for 7 secs by electrophysiological method; assay type: cell-based
T2 sequence (P14867 whole entry): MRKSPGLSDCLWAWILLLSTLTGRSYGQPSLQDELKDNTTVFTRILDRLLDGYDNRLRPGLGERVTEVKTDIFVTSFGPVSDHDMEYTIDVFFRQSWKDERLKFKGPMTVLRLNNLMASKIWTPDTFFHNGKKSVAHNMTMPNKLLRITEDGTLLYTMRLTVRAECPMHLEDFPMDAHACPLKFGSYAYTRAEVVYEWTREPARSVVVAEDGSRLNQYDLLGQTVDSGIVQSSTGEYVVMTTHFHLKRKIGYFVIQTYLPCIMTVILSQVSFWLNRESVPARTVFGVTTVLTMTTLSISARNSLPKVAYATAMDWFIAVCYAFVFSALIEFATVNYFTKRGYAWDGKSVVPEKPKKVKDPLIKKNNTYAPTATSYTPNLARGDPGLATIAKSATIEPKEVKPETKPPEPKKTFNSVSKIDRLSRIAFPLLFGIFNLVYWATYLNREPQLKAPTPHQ
T2 sequence (P47870 whole entry): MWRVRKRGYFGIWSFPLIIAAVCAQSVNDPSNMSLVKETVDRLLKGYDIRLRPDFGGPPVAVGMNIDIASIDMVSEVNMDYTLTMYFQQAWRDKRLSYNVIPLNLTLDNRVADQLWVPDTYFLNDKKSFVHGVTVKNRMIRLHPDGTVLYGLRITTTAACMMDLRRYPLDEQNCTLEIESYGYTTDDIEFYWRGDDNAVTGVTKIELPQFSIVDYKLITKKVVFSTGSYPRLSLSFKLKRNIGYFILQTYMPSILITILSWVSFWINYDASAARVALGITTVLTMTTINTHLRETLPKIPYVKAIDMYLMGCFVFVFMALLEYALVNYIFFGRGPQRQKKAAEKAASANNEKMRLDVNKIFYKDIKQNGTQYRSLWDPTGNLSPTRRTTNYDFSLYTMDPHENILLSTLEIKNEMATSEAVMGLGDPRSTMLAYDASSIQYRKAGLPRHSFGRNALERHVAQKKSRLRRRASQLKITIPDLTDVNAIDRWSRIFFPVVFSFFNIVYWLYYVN
T2 sequence (P18507 whole entry): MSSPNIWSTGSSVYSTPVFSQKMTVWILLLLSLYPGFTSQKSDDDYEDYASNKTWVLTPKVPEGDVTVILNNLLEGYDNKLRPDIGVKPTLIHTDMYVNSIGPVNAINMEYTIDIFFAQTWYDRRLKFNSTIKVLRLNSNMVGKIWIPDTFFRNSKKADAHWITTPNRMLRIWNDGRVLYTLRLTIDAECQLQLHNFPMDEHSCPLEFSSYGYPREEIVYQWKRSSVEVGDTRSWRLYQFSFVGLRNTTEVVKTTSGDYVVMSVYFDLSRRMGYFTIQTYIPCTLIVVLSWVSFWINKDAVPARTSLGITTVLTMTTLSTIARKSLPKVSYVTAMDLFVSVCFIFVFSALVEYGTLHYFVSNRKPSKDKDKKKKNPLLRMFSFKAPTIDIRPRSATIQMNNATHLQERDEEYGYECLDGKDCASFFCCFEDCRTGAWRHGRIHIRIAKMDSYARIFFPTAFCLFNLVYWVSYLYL

[5] = molecular target: T1, GABA-A receptor; alpha-1/beta-2/gamma-2 (Homo sapiens); assay: Positive allosteric modulation of human recombinant GABA-A receptor alpha1beta2gamma2 expressed in HEK293 cells assessed as potentiation of GABA induced chloride currents at 1 uM treated every 60 secs measured for 7 secs by electrophysiological method relative to GABA; assay type: cell-based
[6] = Drug metabolism in human liver microsomes assessed as 2-(6-fluoro-2-(4-(hydroxymethyl)phenyl)imidazo[1,2-a]pyridin-3-yl)-N,N-dimethylacetamide formation at 20 uM preincubated for 15 mins followed by NADPH addition measured after 60 mins by UPLC-MS/MS analysis; assay type: ADME; conditions: 1 h
HepG2 [7] = assay: (§1) Hepatotoxicity in human HepG2 cells assessed as decrease in cell viability after 24 hrs by PrestoBlue assay; assay type: toxicity, cell-based; conditions: hepg2, 24 h
HepG2 [8] = assay: (§2) Hepatotoxicity in human HepG2 cells assessed as decrease in cell viability after 48 hrs by PrestoBlue assay; assay type: toxicity, cell-based; conditions: hepg2, 48 h
HepG2 [9] = assay: Hepatotoxicity in human HepG2 cells assessed as cell membrane damage after 24 hrs by luminescence assay; assay type: toxicity, cell-based; conditions: hepg2, 24 h
HepG2 [10] = assay: Hepatotoxicity in human HepG2 cells assessed as cell membrane damage after 48 hrs by luminescence assay; assay type: toxicity, cell-based; conditions: hepg2, 48 h
HepG2 [11] = assay: (§3) Hepatotoxicity in human HepG2 cells assessed as intracellular ATP level after 24 hrs by luminescence based ATP detection assay; assay type: toxicity, cell-based; conditions: hepg2, 24 h
HepG2 [12] = assay: (§4) Hepatotoxicity in human HepG2 cells assessed as intracellular ATP level after 48 hrs by luminescence based ATP detection assay; assay type: toxicity, cell-based; conditions: hepg2, 48 h
HepG2 [13] = assay: (§5) Hepatotoxicity in human HepG2 cells assessed as loss of mitochondrial membrane potential after 24 hrs by JC-1 staining based fluorescence assay; assay type: toxicity, cell-based; conditions: hepg2, 24 h
[14] = Drug level in human liver microsomes treated with 20 uM of 2-(6-fluoro-2-p-tolylimidazo[1,2-a]pyridin-3-yl)-N,N-dimethylethanamide preincubated for 15 mins followed by NADPH addition measured after 60 mins by UPLC-MS/MS analysis; assay type: ADME; conditions: 1 h
[15] = Drug level in human liver microsomes treated with 20 uM of zolpidem preincubated for 15 mins followed by NADPH addition measured after 60 mins by UPLC-MS/MS analysis; assay type: ADME; conditions: 1 h
[16] = Metabolic stability in human liver microsomes at 20 uM preincubated for 15 mins followed by NADPH addition measured after 60 mins by UPLC-MS/MS analysis; assay type: ADME; conditions: 1 h
[17] = Drug metabolism in human liver microsomes assessed as 2-(2-(4-(hydroxymethyl)phenyl)-6-methylimidazo[1,2-a]pyridin-3-yl)-N,N-dimethylacetamide formation at 20 uM preincubated for 15 mins followed by NADPH addition measured after 60 mins by UPLC-MS/MS analysis; assay type: ADME; conditions: 1 h
Rattus norvegicus [18] = assay: Antipsychotic activity in rat assessed as reversal of amphetamine-induced hyperlocomotion at 1 mg/kg, ip treated for 30 mins prior to test followed by amphetamine administration 15 mins prior to test by open field test; assay type: functional, organism-based
[19] = Plasma elimination half life in human; assay type: ADME; conditions: read-out: beta t1/2
[20] = as §1; assay type: toxicity, cell-based; conditions: HepG2 cells
[21] = as §2; assay type: toxicity, cell-based; conditions: HepG2 cells
[22] = as §3; assay type: toxicity, cell-based; conditions: HepG2 cells
[23] = as §4; assay type: toxicity, cell-based; conditions: HepG2 cells
[24] = as §5; assay type: toxicity, cell-based; conditions: HepG2 cells
Rattus norvegicus [25] = assay: Toxicity in rat assessed as myorelaxant effects at 1 mg/kg, ip administered 60 mins; assay type: organism-based; conditions: in vivo, 1 h
Rattus norvegicus [26] = assay: Toxicity in rat assessed as effect on behavioral changes at 1 mg/kg, ip administered 60 mins; assay type: organism-based; conditions: in vivo, 1 h
Rattus norvegicus [27] = assay: Toxicity in rat assessed as cataleptogenic effects at 1 mg/kg, ip administered 60 mins; assay type: organism-based; conditions: in vivo, 1 h
Rattus norvegicus [28] = assay: Antipsychotic activity in ip dosed rat assessed as reversal of amphetamine-induced hyperlocomotion administered 30 mins before administration of amphetamine measured for 15 mins by open field test; assay type: functional
Rattus norvegicus [29] = assay: Antipsychotic activity in rat assessed as reversal of amphetamine-induced hyperlocomotion at 3 mg/kg, ip treated for 30 mins prior to test followed by amphetamine administration 15 mins prior to test by open field test; assay type: functional, organism-based
Rattus norvegicus [30] = assay: Antipsychotic activity in rat assessed as reversal of amphetamine-induced hyperlocomotion at 3 mg/kg, ip treated for 60 mins prior to test followed by amphetamine administration 15 mins prior to test by open field test; assay type: functional, organism-based
Rattus norvegicus [31] = assay: Toxicity in rat assessed as decrease in spontaneous locomotor activity at 1 mg/kg, ip treated for 60 mins by open field test; assay type: organism-based; conditions: in vivo, 1 h

SMILES: CN(C)C(=O)Cc1c(-c2ccccc2)nc2ccc(F)cn12
- Ki [1]: 130 nM

SMILES: CN(C)C(=O)Cc1c(-c2ccc(F)cc2F)nc2ccc(F)cn12
- Ki [1]: 180 nM

SMILES: Cc1ccc(-c2nc3ccc(F)cn3c2CC(=O)N(C)C)cc1
- Ki [1]: 25 nM
- Ratio Ki (Rattus norvegicus [2]): 1.8
- Activity [3]: Active
- EC50 [4]: 1270 nM
- fold change (FC) [5]: 1.5
- Drug metabolism [6]: Metabolite_Detected
- Activity (HepG2 [7]): Non-Toxic
- Activity (HepG2 [8]): Non-Toxic
- Activity (HepG2 [9]): Non-Toxic
- Activity (HepG2 [10]): Non-Toxic
- Activity (HepG2 [11]): Non-Toxic
- Activity (HepG2 [12]): Non-Toxic
- Activity (HepG2 [13]): Non-Toxic

SMILES: Cc1ccc(-c2nc3ccc(CO)cn3c2CC(=O)N(C)C)cc1
- Drug metabolism [14]: Metabolite_Detected

SMILES: CN(C)C(=O)Cc1c(-c2ccc(F)cc2)nc2ccc(C(F)(F)F)cn12
- Ki [1]: 510 nM

SMILES: CN(C)C(=O)Cc1c(-c2cccc(F)c2)nc2ccc(C(F)(F)F)cn12
- Ki [1]: 730 nM

SMILES: CN(C)C(=O)Cc1c(-c2ccc(F)c(F)c2)nc2ccc(F)cn12
- Ki [1]: 57.5 to 58 nM

SMILES: CN(C)C(=O)Cc1c(-c2ccc(C(F)(F)F)cc2)nc2ccc(C(F)(F)F)cn12
- Ki [1]: 487 nM

SMILES: CN(C)C(=O)Cc1c(-c2cccc(F)c2)nc2ccc(F)cn12
- Ki [1]: 140 nM

SMILES: CN(C)C(=O)Cc1c(-c2ccc(F)cc2F)nc2ccc(C(F)(F)F)cn12
- Ki [1]: 830 nM

SMILES: Cc1ccc2nc(-c3ccc(CO)cc3)c(CC(=O)N(C)C)n2c1
- Drug metabolism [15]: Metabolite_Detected

SMILES: Cc1ccc(-c2nc3ccc(C)cn3c2CC(=O)N(C)C)cc1 [ZOLPIDEM]
- Ki [1]: 44 nM
- fold change (FC) [5]: 2.5
- Stability [16]: Stable
- Drug metabolism [17]: Metabolite_Detected
- Activity (HepG2 [7]): Non-Toxic
- Activity (HepG2 [8]): Non-Toxic
- Activity (HepG2 [9]): Non-Toxic
- Activity (HepG2 [10]): Non-Toxic
- Activity (HepG2 [11]): Non-Toxic
- Activity (HepG2 [12]): Non-Toxic
- Activity (HepG2 [13]): Non-Toxic
- Activity (Rattus norvegicus [18]): Active
- half-life [19]: ≤ 2 h

SMILES: CN(C)C(=O)Cc1c(-c2ccc(F)cc2)nc2ccc(F)cn12
- Ki [1]: 55.6 to 56 nM
- Activity [3]: Active
- EC50 [4]: 408 nM
- fold change (FC) [5]: 1.8
- Stability [16]: Stable
- Activity (HepG2 [7]): Non-Toxic
- Activity (HepG2 [8]): Non-Toxic
- Activity (HepG2 [9]): Non-Toxic
- Activity (HepG2 [10]): Non-Toxic
- Activity (HepG2 [11]): Non-Toxic
- Activity (HepG2 [12]): Non-Toxic
- Activity (HepG2 [13]): Non-Toxic

SMILES: N#CC(C#N)=NNc1cccc(Cl)c1 [CARBONYL CYANIDE M-CHLOROPHENYLHYDRAZONE]
- IC50 at 24 h [20]: 22000 nM
- IC50 at 48 h [21]: 6000 nM
- Activity (HepG2 [9]): Non-Toxic
- Activity (HepG2 [10]): Non-Toxic
- IC50 at 24 h [22]: 9800 nM
- IC50 at 48 h [23]: 7200 nM
- IC50 at 24 h [24]: 36000 nM

SMILES: Cc1ccc2nc(-c3ccc(F)cc3)c(CC(=O)N(C)C)n2c1
- Activity (Rattus norvegicus [25]): Non-Toxic
- Activity (Rattus norvegicus [26]): Toxic
- Activity (Rattus norvegicus [27]): Non-Toxic
- Activity (Rattus norvegicus [28]): Dose-dependent effect
- minimal effective dose (Rattus norvegicus [28]; read-out: MED): 1 mg/kg
- Ki [1]: 59.6 to 60 nM
- Activity [3]: Active
- EC50 [4]: 238 nM
- fold change (FC) [5]: 1.9
- Stability [16]: Stable
- Activity (HepG2 [7]): Non-Toxic
- Activity (HepG2 [8]): Non-Toxic
- Activity (HepG2 [9]): Non-Toxic
- Activity (HepG2 [10]): Non-Toxic
- Activity (HepG2 [11]): Non-Toxic
- Activity (HepG2 [12]): Non-Toxic
- Activity (HepG2 [13]): Non-Toxic
- Activity (Rattus norvegicus [29]): Active
- Activity (Rattus norvegicus [30]): Active
- Activity (Rattus norvegicus [31]): Toxic

SMILES: CN(C)C(=O)Cc1c(-c2ccc(C(F)(F)F)cc2)nc2ccc(F)cn12
- Ki [1]: 68 nM
